# Experimental data from article PMC2994263 (Chemical biology & drug design, 2010).
# Columns and labels:
# AT1 receptor [1] = experiment: Phosphoinositide; assay type: cell-based, human
# AT1 receptor [2] = experiment: Calcium mobilization in AT1-transfected HEK-293 cells; assay type: cell-based, human; details: 10 nM AngII, Fura-2/AM fluorescence
# [3] = system: Akt/PKB (Ser473) phosphorylation by AngII via endogenous AT1 receptor; experiment: Akt/PKB phosphorylation; assay type: cell-based, human; details: 10 nM AngII, 5 min
# [4] = system: NFκB p65 (Ser536) phosphorylation by AngII; experiment: NFκB p65 phosphorylation; assay type: cell-based, human; details: 10 nM AngII, 5 min
# AT1 receptor [5] = details: AT1 cDNA transfected HEK-293 cells; ref [10]; cited from earlier work
# [6] = system: mutant AT1 receptor containing the IC2 of the BKB2R; details: HEK-293 cells, ref [10]; cited from earlier work
# [7] = system: ERK1/2 activation by AngII; experiment: ERK1/2 phosphorylation; assay type: cell-based, human; details: 10 μM peptide; 10 nM AngII, 5 min; western blot; average of three gels
# bradykinin B2 receptor = bradykinin B2 receptor cDNA transfected cells; ref [10]; cited from earlier work
substance,measurement,setting,value
"Angiotensin II (DRVYIHPF; Angiotensin-2; UniProt P01019 25-32, looked up) [AngII]",PI turnover induced by AngII (in words),"AT1 receptor [1]; 10 nM AngII, 30 min at 37°C, no peptide",induced a marked PI turnover
same,calcium influx caused by AngII (in words),AT1 receptor [2]; no peptide,strong calcium influx
same,activation of Akt/PKB by AngII (in words),[3]; no peptide,sizable activation of Akt/PKB
same,Ser536 phosphorylation of p65 by AngII (in words),[4]; no peptide,clearly enhanced
same,Akt phosphorylation (in words),AT1 receptor [5],increases Akt phosphorylation
same,pAkt (in words),[6],decreased pAkt
GRKKRRQRRRPPQGGVHPMKSRLRRT [AT1 IC2 peptide],effect on ERK1/2 activation by AngII (in words),[7],no effect
GRKKRRQRRRPPQGGVKTMSMGRMRG [control peptide],effect on AngII induced PI turnover (in words),"AT1 receptor [1]; 10 μM peptide, 30 min before 10 nM AngII",unhindered
same,effect on AngII promoted Ca2+ entry (in words),AT1 receptor [2]; 10 μM peptide,no effect
same,effect on AngII induced Akt phosphorylation (in words),[3]; 10 μM peptide,no effect
same,effect on AngII dependent NFκB activation / p65 phosphorylation (in words),[4]; 10 μM peptide,no inhibitory effect
same,effect on ERK1/2 activation by AngII (in words),[7],neither the control peptide nor the IC2 peptide at 10 μM affected the activation of this MAP kinase by AngII
bradykinin,Akt phosphorylation (in words),bradykinin B2 receptor,decreases it
